Laboratory results from ChEMBL document CHEMBL1201862, “PubChem BioAssay data set” (2004).
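Interpolation was linear, between the two tested concentrations surrounding the appropriate level; five concentrations were tested over 48 hours in 96-well plates. At the GI50, growth is halved.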 Calls of active or inactive are those of the source. Rule as the data show it: active = GI50 up to about 1.1 µM and inactive = higher.

Columns and labels:
Experiment in all cases: NCI anticancer screen, dose series, 48 h
BT-549 = test system: BT-549
CCRF-CEM = test system: CCRF-CEM
HCT-116 = test system: HCT-116
HT-29 = test system: HT-29
Hs-578T = test system: Hs-578T
KM12 = test system: KM12
MDA-MB-231 = test system: MDA-MB-231
NCI-H23 = test system: NCI-H23
NCI-H460 = test system: NCI-H460
OVCAR-4 = test system: OVCAR-4
OVCAR-5 = test system: OVCAR-5
OVCAR-8 = test system: OVCAR-8
SF-539 = test system: SF-539
SK-MEL-28 = test system: SK-MEL-28
SK-MEL-5 = test system: SK-MEL-5
SR = test system: SR
TK-10 = test system: TK-10
UACC-62 = test system: UACC-62
UO-31 = test system: UO-31
SNB-75 = test system: SNB-75

Measured: GI50

OCC(CN1CCCCC1)(CN1CCCCC1)CN1CCCCC1
inactive: BT-549 > 100 µM | CCRF-CEM > 100 µM | HCT-116 > 100 µM | HT-29 > 100 µM | Hs-578T > 100 µM | KM12 > 100 µM | MDA-MB-231 > 100 µM | NCI-H23 > 100 µM | NCI-H460 > 100 µM | OVCAR-4 > 100 µM | OVCAR-5 > 100 µM | OVCAR-8 > 100 µM | SF-539 > 100 µM | SK-MEL-28 > 100 µM | SK-MEL-5 > 100 µM | SR > 100 µM | TK-10 > 100 µM | UACC-62 > 100 µM | UO-31 > 100 µM

O=C(O)c1ccccc1/C=N/N=C1c2ccccc2-c2ccccc21
inactive: BT-549 71.9 µM | CCRF-CEM 25.5 µM | HCT-116 31 µM | HT-29 29 µM | Hs-578T 3.94 µM | KM12 22.2 µM | MDA-MB-231 59 µM | NCI-H23 38.5 µM | NCI-H460 26.7 µM | OVCAR-4 35.2 µM | OVCAR-5 50.2 µM | OVCAR-8 44.9 µM | SF-539 27.9 µM | SK-MEL-28 51.2 µM | SK-MEL-5 33.3 µM | SR 27.3 µM | TK-10 74.8 µM | UACC-62 44.9 µM | UO-31 32.7 µM

O=C(O)c1cc2ccccc2c(S(=O)(=O)O)c1O
inactive: BT-549 > 100 µM | CCRF-CEM > 100 µM | HCT-116 > 100 µM | HT-29 > 100 µM | Hs-578T > 100 µM | KM12 > 100 µM | MDA-MB-231 > 100 µM | NCI-H23 > 100 µM | NCI-H460 > 100 µM | OVCAR-4 > 100 µM | OVCAR-5 > 100 µM | OVCAR-8 > 100 µM | SF-539 > 100 µM | SK-MEL-28 > 100 µM | SK-MEL-5 > 100 µM | SNB-75 > 100 µM | TK-10 > 100 µM | UACC-62 > 100 µM | UO-31 > 100 µM

COc1ccc(OC)c(N2C(=O)CSC2c2cc(OC)c(OC)c(OC)c2)c1 (stereo unspecified)
inactive: BT-549 48.4 µM | CCRF-CEM 71.8 µM | HCT-116 > 100 µM | HT-29 > 100 µM | Hs-578T > 100 µM | KM12 81.7 µM | MDA-MB-231 > 100 µM | NCI-H23 > 100 µM | NCI-H460 > 100 µM | OVCAR-4 > 100 µM | OVCAR-5 > 100 µM | OVCAR-8 > 100 µM | SF-539 > 100 µM | SK-MEL-28 > 100 µM | SK-MEL-5 99.8 µM | SR 46 µM | TK-10 > 100 µM | UACC-62 > 100 µM | UO-31 > 100 µM
